Experimental data from PMC1851987, “Identification of the Endogenous Key Substrates of the Human Organic Cation Transporter OCT2 and Their Implication in Function of Dopaminergic Neurons” (PLoS ONE, 2007).
Substitutions are numbered along the chain they refer to.

Experiments:
OCT2 mutant 400C variant = experiment: MTT reduction cell viability assay, HEK-293 cells expressing OCT2 mutant 400C variant; assay type: cell-based; conditions: human, 48 h exposure after 12 h incubation with cyclo(his-pro) 10 µmol/l, read-out: EC50 (95% confidence interval), cell viability
OCT2 (wild-type 400R) [1] = experiment: MTT reduction cell viability assay, OCT2 (wild-type 400R) transfected HEK-293 cells; assay type: cell-based, human; conditions: human, HEK-293 cells transfected with OCT2 (wild-type 400R); 48 h exposure, no pretreatment; read-out: EC50 (95% confidence interval), cell viability
Protocol: (§1) Cell viability was assessed in HEK-293 cells, human dopaminergic neuroblastoma cells (SH-SY5Y) and human glioblastoma cells (HTZ-146) by the MTT test as described.[22] […] For indication of metabolic activity, cells were treated with MTT reagent (15 µl of 1 mg/ml stock solution per well) for 1 h, and after drying of culture plates for 1 h at 37°C, the resulting formazan dye was extracted with isopropanol/HCl (100 µl 0.04 mol/l per well) and absorbance was determined spectrophotometrically at 568 nm.

OCT2 (wild-type 400R) [2] = target: T1, OCT2 (wild-type 400R) (Homo sapiens, UniProt O15244, S270A); experiment: Specific uptake into OCT2 (wild-type) transfected HEK-293 cells vs empty vector, LC-MS-MS; conditions: human, pH 7.4
T1 sequence (O15244 1-555 S270A): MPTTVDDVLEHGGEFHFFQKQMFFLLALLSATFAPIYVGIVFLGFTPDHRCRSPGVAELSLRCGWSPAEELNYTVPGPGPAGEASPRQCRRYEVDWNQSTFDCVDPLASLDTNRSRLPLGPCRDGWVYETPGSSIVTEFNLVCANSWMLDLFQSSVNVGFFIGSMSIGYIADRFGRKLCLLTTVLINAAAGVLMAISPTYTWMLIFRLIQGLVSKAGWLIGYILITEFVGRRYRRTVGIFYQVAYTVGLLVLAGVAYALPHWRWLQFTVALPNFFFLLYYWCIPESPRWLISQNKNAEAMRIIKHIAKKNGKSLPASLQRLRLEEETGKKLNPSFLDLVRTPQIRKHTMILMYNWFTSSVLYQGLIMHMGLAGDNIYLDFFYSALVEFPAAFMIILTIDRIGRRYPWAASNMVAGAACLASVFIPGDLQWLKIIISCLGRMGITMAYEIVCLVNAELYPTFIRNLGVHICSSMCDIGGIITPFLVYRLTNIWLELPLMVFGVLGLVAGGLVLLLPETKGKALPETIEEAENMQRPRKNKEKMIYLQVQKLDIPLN

OCT2 variant A270S = target: T2, OCT2 variant A270S (Homo sapiens, UniProt O15244); experiment: Specific uptake into HEK-293 cells transfected with OCT2 variant A270S
T2 sequence (O15244 1-555): T1 sequence (O15244 1-555 S270A) with A270S
Protocol: The cDNAs encoding the organic cation transporters OCT1 (GenBank accession no. NM_003057), OCT2 (NM_003058), and EMT (NM_021977) were amplified by RT-PCR from human liver, kidney, and placenta total RNA respectively, and subcloned into the eukaryotic expression vector pcDNA3. The cDNA encoding the norepinephrine transporter (SLC6A2) was kindly provided by C. Pifl (University of Vienna).
For uptake experiments, cells were grown on polystyrene dishes of 60 mm diameter to at least 80% confluence. […] Cells were lysed with 1 ml of 4 mmol/l perchloric acid and lysates subjected to LC-MS-MS quantification. Cellular protein content was determined after solubilization of perchloric acid precipitates with 1 ml of […] NaOH using the bicinchoninic assay (BCA Protein Assay Kit, Pierce).
Chromatographic separations were performed on Hypercarb (5 µm, 50×2.1 mm; Thermo Electron), Aquasil C18 (3 µm, 100×4.6 mm; Thermo Electron), or Hilic columns (5 µm, 100×3.0 mm; Waters Atlantis) by isocratic or gradient elution using 0.1% aqueous formic acid (A) and acetonitrile or methanol (B) as solvent system. For quantification, SRM transitions of a precursor ion [M+H]^+ into a specific fragment ion (peak area ratios relative to IS) were recorded in positive ESI mode at 1.0–1.5 mTorr collision pressure and 10–40 eV collision energy. […]

[3] = tested on: HEK-293 cells expressing OCT2; experiment: MTT reduction cell viability assay, OCT2 (wild-type 400R) transfected HEK-293 cells; assay type: cell-based, human; conditions: cyclo(his-pro) 10 µmol/l, 12 h prior to salsolinol treatment
Protocol: as §1

[4] = weak bases; cited from earlier work
OCT2 = target: T3, OCT2 (Homo sapiens, UniProt O15244, S270A); experiment: Substrate search: uptake from fetal bovine serum into OCT2-transfected vs control HEK-293 cells, ESI-LC-MS-MS; conditions: 30 min incubation with 100% fetal bovine serum, OCT2 vs HEK-293 cells without OCT2
T3 sequence (O15244 1-555 S270A): T1 sequence (O15244 1-555 S270A)
Protocol: Uptake experiments were conducted in OCT2-transfected human embryonic kidney cells (HEK-293) by incubation with fetal bovine serum. Specific OCT2-mediated uptake of a compound from serum was assessed in comparison to HEK-293 cells without OCT2 expression by running positive electrospray ionization tandem mass spectrometry analysis (ESI-LC-MS-MS).
After termination of uptake by washing with ice-cold HEPES-Krebs buffer and protein precipitation with 4 mmol/l perchloric acid or 100% acetonitrile in the case of brain homogenates, lysates were analyzed by LC-MS-MS operating in product scan positive electrospray ionisation mode (ESI) on a TSQ Quantum triple-quadrupole tandem mass spectrometer equipped with a thermostated (5°C) Surveyor autosampler and a thermostated (30°C) Surveyor HPLC system (Thermo Electron). Spray voltage was set at 4500 V, and capillary temperature was kept at 350°C. Nitrogen sheath gas and auxiliary gas pressure were 40 and 4 psi respectively. The collision gas was argon and collision-induced dissociation (CID) took place at 1.5 mTorr and 25 eV. […] 1-Methyl-4-phenyl-pyridinium iodide (MPP^+, 500 ng/ml) was applied as internal standard (IS) and the m/z 170→128 transition was simultaneously recorded by single reaction monitoring (SRM) at 36 eV collision energy. […]

SMILES	EC50 at 48 h (OCT2 mutant 400C variant)	EC50 at 48 h (OCT2 (wild-type 400R) [1])	Km at 1 min (OCT2 (wild-type 400R) [2])	Km at 1 min (OCT2 variant A270S; human, pH 7.4)	effect of pretreatment on salsolinol-induced degeneration [3]	pKS [4]	specific uptake from serum, fold above the control (OCT2)	Clin (OCT2 variant A270S; incubation with 10 µmol/l, mean (s.e.m.))
CC1NCCc2cc(O)c(O)cc21 (centres unmarked) [salsolinol]	406 µM	192 µM	130 µM	132 µM	–	–	–	–
O=C1NC(Cc2c[nH]cn2)C(=O)N2CCCC12 (centres unmarked) [cyclo(his-pro), histidyl-proline diketopiperazine]	–	–	–	–	prevented degeneration	6.5–7.5	> 2 fold	25.5 (3.3) µl/mg/min
